Data: patent publication US8987486B2, “Trans-2-decenoic acid derivative and pharmaceutical agent containing the same” (Nagoya Industrial Science Research Institute, priority 2010, dated 2015)

What was measured:
Format in all cases: in vivo
[1] = test system: chronic mild stress-induced depressive model mice; test: Elevated plus maze test in chronic mild stress-induced depressive model mice; conditions: 1,500 μg/kg orally once daily for three weeks; control 25.37±4.13 seconds
Procedure: The same operation as in the above Test Example 7 was conducted to prepare chronic mild stress-induced depressive model mice (n=8 to 12). During that time, the compound of the present invention dissolved in PBS or in a PBS solvent containing DMSO, etc. was orally administered once daily for three weeks and, after that, the suppressive effect for anxiety symptom was evaluated by means of an elevated plus maze test. Thus, time when the mouse stayed in an open arm of the elevated plus maze and the frequency (motility amount) of coming in and out of the mouse for both open arm and closed arm were measured. When the anxiety symptom was stronger, the staying time in the open arm was shorter. At that time, it is confirmed that there is no difference in the frequencies for coming in and out the arm between the cases where the stress is and is not loaded. Incidentally, the test for significance was carried out by a one-way ANOVA, Tukey's Multiple Comparison Test.

[2] = test system: Male ddY strain mice loaded with forced swimming stress; test: Suppressive effect for depressive symptom as a result of stress loading (forced swimming); conditions: 100 μg/kg body weight intraperitoneally every day, thirteenth day after stress loading, versus PBS control
Procedure: Male ddY strain mice of seven weeks age were loaded, as the stress, with forced swimming of 6 minutes every day for 2 weeks and the evaluation of suppressive effect for depression symptom was conducted. Thus, as from the initiation of loading the stress, the compound 1 dissolved in 0.1% DMSO was intraperitoneally administered every day in a dose of 100 μg/kg body weight and the immobility time of the mice upon the forced swimming was measured (n=5). As a control, a phosphate-buffered physiological saline (PBS) was intraperitoneally administered to the mice during two weeks and the immobility time was measured (n=4). The cases to which no stress was loaded were also administered with each of the compound 1 and the phosphate buffered saline (PBS) as same as in the cases to which the stress was loaded. Incidentally the test of significance was conducted by means of a two-way ANOVA, Bonferroni test.

[3] = test system: Spinal cord injury model rats; test: Repairing action for the spinal cord injury, BBB scale (complete cut at T10); conditions: 100 μg/kg body weight intraperitoneally once daily, after six weeks, n=6
Procedure: Spinal cord injury model rats were prepared and the repairing action of the compound 1 for the spinal cord injury was investigated. The compound 1 was dissolved in a phosphate buffered saline (PBS) and intraperitoneally administered to each spinal cord injury model rat once daily in a dose of 100 μg/kg body weight. As a control, PBS was similarly administered.
Female Wistar rats of seven weeks age were anesthetized with pentobarbital (40 mg/kg), the spinal column was exposed, vertebral arch of the ninth thoracic vertebra was excised and the tenth thoracic cord (T10) was completely cut using a sharp knife. After the back muscle and the skin were satured, paralysis of hind limbs was confirmed to prepare spinal cord injury model rats.
For each of the groups administered with the compound 1 and PBS, the improvement in motor function of the spinal cord injury model rats during six weeks was evaluated every day according to a BBB scale (Basso D M, et al., J. Neurotrauma, 12:1-21 (1995)) (0 for immediately after the injury while 21 for non-injury). Incidentally, the test of significance was conducted by a two-way ANOV, Bonferroni test.

In the case of CCCCCCC/C=C/C(=O)OCCN(CC)CC [Compound 6, (E)-2-(diethylamino)ethyl dec-2-enoate], the “staying time in an open arm (elevated plus maze)” value [1] was 53.57 ± 7.00 s.
With CCCCCCC/C=C/C(=O)OCCN(C)C [Compound 1, (E)-2-(dimethylamino)ethyl dec-2-enoate] the “immobility time upon forced swimming” value [2] was “significantly shortened the immobility time” and the “mean value of BBB scores±SE” value [3] was 11.60±2.2.
In the case of CCCCCCC/C=C/C(=O)SCCN(C)C [Compound 55, (E)-S-2-(dimethylamino)ethyl dec-2-enethioate], the “staying time in an open arm (elevated plus maze)” value [1] was 47.24 ± 7.52 s.
